These results are taken from patent US5395947A, “Platinum(II) complex and processes for preparing the same” (Sunkyong Industries, Ltd., priority 1991, dated 1995).

Assay [1] deals with murine leukemia L1210 cells. The assay is described as follows: Growth inhibition test on cultured murine leukemia L1210 cells. The format is cell-based. As to conditions: 48 hours, 37° C., Trypan blue viability. The procedure, abridged:
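L1210 cells (1×10^5) exposed to graded compound concentrations in RPMI 1640 with 10% fetal calf serum, 37° C, 5% CO2, 48 h. Viability by 0.17% Trypan blue staining, relative to untreated control cells.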

In assay [2] the test system is human cancers. As to conditions: testicular, ovarian, bladder, head and neck cancer; cited from earlier work.
The test system of assay [3] is murine leukemia L1210. The assay is described as follows: Antitumor activity test on murine leukemia L1210 in vivo. Also noted: species or system male BDF1 mice. As to conditions: days 1, 5, 9. The procedure, abridged:
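Intraperitoneal L1210 model: 1×10^6 cells inoculated i.p. into 6-week-old male BDF1 mice (21±3 g) on day 0, seven per group. Compounds in 0.5% CMC given i.p. on days 1, 5 and 9; vehicle-only controls. T/C % from mean survival time of treated over control.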

With `N.N.[Cl][Pt][Cl]` [cisplatin, cis-dichlorodiammineplatinum(II), reference compound], in assay [1], the “IC50 (concentration required for 50% inhibition of growth)” value was 0.06 µg/mL. Also, the “effectiveness on human cancers” value in assay [2] is “effective on a variety of human cancers”. In addition, the “T/C (%)” value in assay [3] (1.5 mg/kg i.p.) is on record as 142%; in assay [3] (3.1 mg/kg i.p.), 167%; in assay [3] (6.2 mg/kg i.p.), 82%; in assay [3] (12.5 mg/kg i.p.), “toxic”; in assay [3] (25 mg/kg i.p.) it was “toxic”.
